Experiments:
Format in all cases: cell-based
IGROV1VCR [1] = assay: MTT assay, IC50 determination of chemotherapies alone or with PEP-010; conditions: for fold change (FC) vs. IC50 IGROV1: IC50 in IGROV1VCR over IC50 in IGROV1, MTT 72 h; for IC50: 72 h treatment, IGROV1VCR (vincristine-resistant, expresses MDR pumps), drug alone, mean ± SEM, three to six independent biological replicates
Procedure: (§1) The ovarian cell lines IGROV1, IGROV1CDDP, and IGROV1VCR were cultivated in RPMI 1640 Medium GlutaMAX with 10% FBS and 1% of pyruvate and glutamine. They were maintained at 5% CO2 and 37°C in a humidified atmosphere. All reagents are from Gibco® (Thermo Fisher Scientific, Carlsbad, CA, United States).
(§2) PEP-010 was first dissolved in 0.1% formic acid (10 mM) and then diluted in a cell culture medium at pH9 (to allow a full dissolution of the peptide). Experiments in similar conditions, but without the peptide, were conducted as negative controls. Staurosporine (Selleckchem, Houston, TX, United States) was used as a positive control at a concentration of 1 µM. Cells were collected or analyzed at the indicated time points. For combination conditions, the cells were treated with paclitaxel (Accord, London, United Kingdom) at the indicated concentrations for 72 h.
(§3) Here, 10,000 cells were seeded on 96-well plates in 100 µL of medium. The day after, the medium was replaced with fresh medium containing the appropriate drugs at the indicated concentrations: cisplatin (Mylan, Canonsburg, PA, United States), paclitaxel (Accord, London, United Kingdom), doxorubicin (Pfizer, New York, NY, United States), vincristine [Pfizer, New York, NY, United States)], and/or PEP-010. The plates were incubated at 37° in humidified air with 5% CO2 for 72 h. The MTT reagent (20 µL) was added at the end of the indicated time points, and plates were incubated for 2 h at 37°C. In addition, 100 µL of lysis buffer was added to each well. Subsequently, the plates were incubated for 2 h at 37°C, and the absorbance was measured at 570 nm (Tecan, Männedorf, CH).

IGROV1CDDP [2] = assay: MTT assay, IC50 determination of chemotherapies; conditions: for IC50: MTT assay, 72 h treatment, IGROV1CDDP (cisplatin-resistant), mean ± SEM, three to six independent biological replicates
Procedure: as §1, §2, §3

IGROV1 [3] = assay: MTT assay, IC50 determination of chemotherapies; conditions: Homo sapiens, IGROV-1, 72 h treatment, IGROV1 parental, three to six independent biological replicates
Procedure: as §1, §2, §3

IGROV1CDDP [4] = assay: Apoptosis measurement, Annexin V/PI staining and FACS analysis; conditions: PEP-010 12.5 µM, 24 h post-treatment, untreated control 14.6 ± 1.2, mean ± SEM, three independent biological replicates
Procedure: as §2
(§4) Cell death was assessed using Annexin V-APC and propidium iodide (PI) (BioLegend, San Diego, CA, United States) staining following the manufacturer’s instructions. Results were analyzed as previously described ([Debernardi et al., 2018]). A total of 10,000 events were analyzed using a C6 Accuri Cytometer (Becton-Dickinson, Franklin Lakes, NJ, United States), analysis was performed using integrated software, and Annexin V positive cells (PI positive and negative) were counted as apoptotic.

IGROV1VCR [5] = assay: as above
Procedure: as §2, §4

IGROV1 [6] = assay: as above; conditions: PEP-010 12.5 µM, 24 h post-treatment, untreated control 11 ± 1.3, mean ± SEM, three independent biological replicates
Procedure: as §2, §4

[7] = test system: ovarian adenocarcinoma cell models resistant to different chemotherapies; assay: Cell death in monotherapy (Annexin-V/Propidium Iodide staining and flow cytometry); conditions: PEP-010 monotherapy; highest value stated in abstract, dose and cell line not stated there
Procedure: as §2, §4

IGROV1CDDP [8] = assay: DNA damage, γH2AX immunofluorescence; conditions: 48 h post-treatment with PEP-010, IGROV1CDDP; untreated control 15.8 ± 2.8; mean ± SEM, three biological replicates
Procedure: (§5) Cells were seeded on 12 mm coverslips placed in a 24-well plate (24 h, 37°C, and 5% CO2). Cells were treated with PEP-010 as previously described. At the indicated time point, cells were washed with 1X PBS and fixed in 4% paraformaldehyde (Euromedex, Souffelweyersheim, FR) in 1X PBS (10 min, RT), followed by three washes in 1X PBS. Cells were then permeabilized with 2% Triton X-100 (Euromedex, Souffelweyersheim, FR) in 1X PBS (10 min, RT) and then washed in 1X PBS. Cells were saturated with 0.5% BSA (Euromedex, Souffelweyersheim, FR) in 1X PBS (40 min, RT) and then stained with an anti-γH2AX Ser139 antibody (mouse, 1:200, from BioLegend #613402). Incubation with primary antibody (2 h, RT) was followed by three washes in 1X PBS and by incubation (1 h, RT) with a secondary antibody conjugated to Alexa Fluor […] goat anti-mouse (Thermo Fisher Scientific, Carlsbad, CA, United States), diluted 1:200. Coverslips were mounted on microscopy glass slides using a mounting medium containing DAPI (Sigma-Aldrich, Saint-Quentin-Fallavier, Cedex, France). Images were acquired using a fluorescence microscope (Zeiss Observer Z1). Images were analyzed using ImageJ software.

IGROV1VCR [9] = assay: DNA damage, γH2AX immunofluorescence; conditions: 48 h post-treatment with PEP-010, IGROV1VCR; untreated control 20.7 ± 1.7; mean ± SEM, three biological replicates
Procedure: as §5

Row | Compound | fold change (FC) vs. IC50 IGROV1 (IGROV1VCR [1]) | IC50 (IGROV1VCR [1]; MTT assay) | fold change (FC) vs. IC50 IGROV1 (IGROV1CDDP [2]; IC50 in IGROV1CDDP over IC50 in IGROV1, MTT 72 h) | IC50 (IGROV1CDDP [2]) | IC50 (IGROV1 [3]) | total % of Annexin V positive cells (IGROV1CDDP [4]) | total % of Annexin V positive cells (IGROV1VCR [5]; PEP-010 12.5 µM, 24 h post-treatment, IGROV1VCR, untreated control 12.6 ± 0.9, mean ± SEM, three independent biological replicates) | apoptosis, % of cells, combination with paclitaxel (IGROV1VCR [5]; PEP-010 in combination with paclitaxel, stated in abstract, doses not given) | total % of Annexin V positive cells (IGROV1 [6]) | cell death in monotherapy, % of cells [7] | FC, reduction of the IC50 of paclitaxel (PTX alone vs. PTX + PEP-010) (IGROV1VCR [1]; MTT assay, 72 h, IGROV1VCR, PEP-010 25 µM) | % of γH2AX positive cells (IGROV1CDDP [8]) | % of γH2AX positive cells (IGROV1VCR [9])
1 | N.N.[Cl][Pt][Cl] [Cisplatin, cisplatin] | 6.5 | 15000 nM | 11.1 | 25700 nM | – | – | – | – | – | – | – | – | –
2 | COc1cccc2c1C(=O)c1c(O)c3c(c(O)c1C2=O)C[C@@](O)(C(=O)CO)C[C@@H]3O[C@H]1C[C@H](N)[C@H](O)[C@H](C)O1 [Doxorubicin, doxorubicin] | – | > 10000 nM | – | 500 nM | 400 nM | – | – | – | – | – | – | – | –
3 | CC(=O)O[C@H]1C(=O)[C@@]2(C)[C@H]([C@H](OC(=O)c3ccccc3)[C@]3(O)C[C@H](OC(=O)[C@H](O)[C@@H](NC(=O)c4ccccc4)c4ccccc4)C(C)=C1C3(C)C)[C@]1(OC(C)=O)CO[C@@H]1C[C@@H]2O [Paclitaxel, paclitaxel] | 3.9 | 2900 nM | – | 500 nM | 750 nM | – | – | – | – | – | – | – | –
4 | CC[C@]1(O)C[C@H]2CN(CCc3c([nH]c4ccccc34)[C@@](C(=O)OC)(c3cc4c(cc3OC)N(C=O)[C@H]3[C@@](O)(C(=O)OC)[C@H](OC(C)=O)[C@]5(CC)C=CCN6CC[C@]43[C@@H]65)C2)C1 [Vincristine, vincristine] | 97 | 3300 nM | – | 900 nM | 34 nM | – | – | – | – | – | – | – | –
5 | VKKKKIKAEIKIYVETLDDIFEQWAHSEDL [PEP-010] | – | – | – | – | – | 38.7 ± 8.5% | 37 ± 4% | 87% | 37.4 ± 1.9% | up to 55% | 2.2 | 26.5 ± 3.1% | 29.5 ± 2.6%

— paper PMC11335512, “The first-in-class pro-apoptotic peptide PEP-010 is effective in monotherapy and in combination with paclitaxel on resistant ovarian adenocarcinoma cell models” (Frontiers in Pharmacology, 2024)
